Laboratory results as given in patent publication US11844754B2, “Methods for treatment of Parkinson's disease” (NeuroDerm, Ltd., priority 2020, dated 2023).
Where two headings read alike, the source gives them in different places.

Tests used:
[1] = Plasma carbidopa Cmax after SC administration of several carbidopa doses, clinical trial ND0612-005a and ND0612-005b (Example 2b); assay type: in vivo, subjects (human); conditions: SC over 24 hours; 60 mg/ml levodopa with 7.5, 6 or 4 mg/ml carbidopa; 17.9, 26.9, 33.6 mg/24 h carbidopa
Procedure: In a separate clinical trial (ND0612-005a and ND0612-005b, open label design studies), the plasma carbidopa levels were tested in view of the subcutaneous administration of several carbidopa doses. Three formulations, comprising 60 mg/ml levodopa and (a) 7.5 mg/ml; (b) 6 mg/ml; or 4 mg/ml of carbidopa, were administered to three groups of subjects over the course of 24 hours, providing a total of 17.9 mg/24 h carbidopa to each subject in the first group, 26.9 mg/24 h carbidopa to each subject in the second group and 33.6 mg/24 h carbidopa to each subject in the third group.

[2] = Plasma exposure of LD and CD after SC infusion, oral IR tablet, and SC + oral coadministration (crossover, Example 1); assay type: in vivo, healthy subjects (human); conditions: for 1. Treatment A AUC (0-8) × 0.853* / AUC(0-t): human; for 1. Treatment A AUC (0-8) × 0.853*: sc
Text: A test was run in order to assess the plasma exposure of levodopa (LD) following the coadministration of LD and carbidopa (CD) in both subcutaneous (SC) and oral administrations. Accordingly, results obtained from a combined SC+oral administration were compared to results obtained from SC administration alone and from oral administration alone. An additive plasma exposure and PK profile was expected, i.e., it was expected that the SC+oral coadministration would provide results equal to the additive results of the SC and oral administrations, when each was administered separately.
16 healthy subjects (18-50 years) were treated in a crossover manner, i.e., sequentially, with a washout period of 6 days between the following two treatments:
Treatment A: A total dose of 180/22.5 mg LD/CD (formulation A) was administered by SC infusion over the course of 8 hours, at a steady infusion rate.
Treatment B: An immediate release (IR) tablet of 100/25 mg LD/CD was administered orally at time 0 h.
Following a 32 hour washout period, the same 16 healthy subjects were administered with LC/CD both orally and subcutaneously according to the following treatment:
Treatment C: A dose of 153.6/19.2 LD/CD (formulation A) was administered by SC infusion over the course of 8 hours, at a steady infusion rate, combined with a single co-administration of an oral IR LD/CD 100/25 mg tablet, 4 hours after the initiation of the infusion. Total LD/CD dose: 253.6/44.2 mg.
Blood samples were collected at the following time points:
Treatment A: 0 (prior to treatment initiation), 0.5 h, 1 h, 2 h, 3 h, 4 h, 5 h, 5.5 h, 6 h, 7 h, 8 h (prior to the end of the infusion).
Treatment B: 0 (prior to treatment initiation), 0.5 h, 1 h, 2 h, 3 h, 4 h.
The normalized AUC0-8 of LD and CD of Treatment C, resulting from the combined SC and oral treatment, as described above, was calculated and compared to the sum of the normalized LD and CD AUCs obtained from Treatment A (AUC0-8 resulting from 8 h SC infusion) and Treatment B (AUC0-4 resulting from one IR oral tablet).

[3] = Dose proportionality of SC LD/CD, clinical trial ND0612-001 (Example 2a); assay type: in vivo, healthy male subjects (human); conditions: 24 hour continuous SC infusion of LD (6% w/w)/CD (1.4% w/w) at 80, 120, 160, 200, 240 μl/h
Procedure: Subjects were administered with a composition comprising LD (6% w/w)/CD (1.4% w/w) by way of a 24 hour continuous infusion at varying infusion rates: • Group 1: 80 μl/h • Group 2: 120 μl/h • Group 3: 160 μl/h • Group 4: 200 μl/h • Group 5: 240 μl/h Several PK parameters were derived for both LD and CD in the dose proportionality assessment, including AUC (hr*ng/mL), Cmax (ng/mL), C15 (ng/mL), and C24 (ng/mL).

in vivo = conditions: for AUC: female, pig, in vivo, sc, 600 mg, SC treatment AUC (G1) Actual
Procedure: The objective of this study was to determine the pharmacokinetics (PK) of levodopa (LD) in domestic pigs following continuous subcutaneous (SC) infusion of a levodopa prodrug, exemplified using LD-Tyr, administered concomitantly with oral Levodopa.
Table 3 provides the LD-Tyr formulation tested in this study: […]
The study consisted of 3 dosing sessions in which 5 female pigs (Swine/Landrace×large White, ˜40-50 kg each) were treated with the LD-Tyr solution of Table 3 and/or Sinemet IR oral tablets (CD/LD 25/100 mg tablet) in a cross-over design with up to 4-day washout period between dosing sessions, as detailed in the following tables:
As presented in Tables 4 and 5 above, the study included the following three test groups: • G1—received only SC LD-Tyr (600 mg total daily dose); • G2—received only oral LD (300 mg total daily dose); and • G3—received both SC LD-Tyr (600 mg total daily dose) and oral LD (200 mg total daily dose). Pharmacokinetics Blood Collection
Blood samples for the determination of LD-Tyr (in groups 1 and 3), as well as LD and CD plasma levels (in all groups) were collected from the pigs at the following timepoints: • 0 (pre-dose), 30 min, 1 h, 2 h, 3 h, 4 h, 4.5 h, 5 h, 6 h, 7 h, 8 h, 8.5 h, 9 h, 10 h, 11 h, 13 h, 15 h 18 h following treatment initiation. In case of pump occlusion (groups 1 and 3) resulting in infusion cessation, no further blood samples will be collected. Tablets were administrated before blood collection (time 0, 4 and 8 h). Bioanalysis
Plasma samples were analyzed for concentration of LD-Tyr (groups 1 and 3), as well as LD and CD (for all groups) using a qualified LC-MS/MS analytical method.
PK parameters (at least Cmax, tmax, t1/2, AUC) for LD-Tyr, LD and CD were calculated by noncompartmental methods using appropriate software (e.g. Phoenix® WinNonlin®). Individual and mean was calculated for quantitative parameters.
The LD exposure obtained from the SC infusion is considered to be the baseline.

Structure (SMILES) | dose proportionality of carbidopa Cmax [1] | 1. Treatment A AUC (0-8) × 0.853* ([2]; in vivo) | AUC(0-t) ([2]; in vivo, plasma CD, formulation A 153.6/19.2 LD/CD SC infusion over 8 h + oral IR LD/CD 100/25 mg tablet at 4 h, individual subjects, read-out: 4. Treatment C AUC (0-8) [Observed]) [ng·h/mL] | AUC(0-t) ([2]; in vivo, plasma CD, formulation A 180/22.5 mg LD/CD SC infusion over 8 h, AUC multiplied by 0.853, individual subjects, read-out: 1. Treatment A AUC (0-8) × 0.853*) [ng·h/mL] | AUC(0-t) ([2]; in vivo, plasma CD, oral IR tablet 100/25 mg LD/CD at 0 h, individual subjects, read-out: 2. Treatment B AUC (0-4)) [ng·h/mL] | Observed (C) vs. Additive Ratio ([2]; in vivo) | dose proportionality of PK parameters (AUC, Cmax, C15, C24) [3] | AUC(0-t) ([2]; in vivo, plasma LD, formulation A 153.6/19.2 LD/CD SC infusion over 8 h + oral IR LD/CD 100/25 mg tablet at 4 h, individual subjects, read-out: 4. Treatment C AUC (0-8) [Observed]) [ng·h/mL] | AUC(0-t) ([2]; in vivo, plasma LD, formulation A 180/22.5 mg LD/CD SC infusion over 8 h, AUC multiplied by 0.853 to equal SC dose of Treatment C, individual subjects, read-out: 1. Treatment A AUC (0-8) × 0.853*) [ng·h/mL] | AUC(0-t) ([2]; in vivo, plasma LD, oral IR tablet 100/25 mg LD/CD at 0 h, individual subjects, read-out: 2. Treatment B AUC (0-4)) [ng·h/mL] | AUC(0-t) ([2]; plasma LD, formulation A 180/22.5 mg LD/CD SC infusion over 8 h, AUC multiplied by 0.853 to equal SC dose of Treatment C, individual subjects, read-out: 1. Treatment A AUC (0-8) × 0.853*) [ng·h/mL] | 3. Combined 1 + 2 [Estimated] ([2]; plasma LD, sum of normalized Treatment A and Treatment B AUCs, individual subjects) | AUC (in vivo; Landrace x large White) [ng·h/mL] | AUC (in vivo; plasma LD AUC, pigs, SC LD-Tyr/CD 600/26 mg over 8 hrs only, individual animals) [ng·h/mL] | increase of LD plasma exposure by oral add-ons on top of SC administration, versus predicted (average) (in vivo; pigs, SC LD-Tyr/CD + oral LD/CD)
C[C@@](Cc1ccc(O)c(O)c1)(NN)C(=O)O [CD, carbidopa] | clear dose proportionality | 900 | 1050 | 942 | 322 | lower than expected | demonstrated dose proportionality | – | – | – | – | – | – | – | –
N[C@@H](Cc1ccc(O)c(O)c1)C(=O)O [LD, L-3,4-dihydroxyphenylalanine] | – | 2412 | – | – | – | higher than expected | demonstrated dose proportionality | 4770 | 2310 | 1420 | 3090 | 3087 | 17600 | 18000 | over 50%
